Source: patent US7759345B2, “Antitumoral derivatives of ET-743” (priority 2001, dated 2010)
Where two headings read alike, the source gives them in different places.

Columns and labels:
Format in all cases: cell-based
A-549 = assay: Inhibition of cells growth by colorimetric assay (SRB), A-549; conditions: for GI50 / LC50 (concentration for 50% cell killing): Homo sapiens, A549, 48 h; for GI50: read-out: GI50 A-549; for LC50 (concentration for 50% cell killing): read-out: LC50 A-549, A-549
How it was run: (§1)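 48 h SRB cytotoxicity assay; compound range 10–10^−8 μg/ml; seeding 5×10^3 cells/well, 18 h pre-attachment; OD 490 nm; GI, TGI, LC from triplicate means ± SD.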

HT-29 = assay: Inhibition of cells growth by colorimetric assay (SRB), HT-29; conditions: for GI50 / LC50 (concentration for 50% cell killing): Homo sapiens, HT-29, 48 h; for GI50: read-out: GI50 HT-29; for LC50 (concentration for 50% cell killing): read-out: LC50 HT-29, HT-29
How it was run: as §1

HMEC1 = assay: Inhibition of cells growth by colorimetric assay (SRB), HMEC1
Procedure: (§2) 2°.—Inhibition of Cells Growth by Colorimetric Assay.
(§3) A colorimetric type of assay, using sulforhodamine B (SRB) reaction has been adapted for a quantitative measurement of cell growth and viability [following the technique described by Philip Skehan, et al. (1990), New colorimetric cytotoxicity assay for anticancer drug screening, J. Natl. Cancer Inst., 82:1107-1112]
(§4) This form of the assay employs 96 well cell culture microplates of 9 mm diameter (Faircloth, 1988; Mosmann, 1983). Most of the cell lines are obtained from American Type Culture Collection (ATCC) derived from different human cancer types.
(§5) Cells are maintained in RPMI 1640 10% FBS, supplemented with 0.1 g/l penicillin and 0.1 g/l streptomycin sulfate and then incubated at 37° C., 5% CO2 and 98% humidity. For the experiments, cells were harvested from subconfluent cultures using trypsin and resuspended in fresh medium before plating.
(§6) Cells are seeded in 96 well microtiter plates, at 5×10^3 cells per well in aliquots of 195 μl medium, and they are allowed to attach to the plate surface by growing in drug free medium for 18 hours. Afterward, samples are added in aliquots of 5 μl in a ranging from 10 to 10^−8 μg/ml, dissolved in DMSO/EtOH/PBS (0.5:0.5:99). After 48 hours exposure, the antitumor effect are measured by the SRB methodology: cells are fixed by adding 50 μl of cold 50% (wt/vol) trichloroacetic acid (TCA) and incubating for 60 minutes at 4° C. Plates are washed with deionized water and dried. One hundred μl of SRB solution (0.4% wt/vol in 1% acetic acid) is added to each microtiter well and incubated for 10 minutes at room temperature. Unbound SRB is removed by washing with 1% acetic acid. Plates are air dried and bound stain is solubilized with Tris buffer. Optical densities are read on a automated spectrophotometric plate reader at a single wavelength of 490 nm.
(§7) The values for mean+/−SD of data from triplicate wells are calculated. Some parameters for cellular responses can be calculated: GI=growth inhibition, TGI=total growth inhibition (cytostatic effect) and LC=cell killing (cytotoxic effect).
(§8) Obtained results may predict the usefulness of a certain drug as a potential cancer treatment. For this technique, compounds which show GI50 values smaller than 10 μg/ml are selected to continue with further studies. GI50's data allow to predict that not only could a drug be cystostatic, but also it could have a potential in terms of tumor reduction.

K-562 = assay: Inhibition of cells growth by colorimetric assay (SRB), K-562; conditions: SRB, 48 hours exposure
Procedure: as §2, §3, §4, §5, §6, §7, §8

SK-MEL-28 = assay: Inhibition of cells growth by colorimetric assay (SRB), SK-MEL-28; conditions: SRB, 48 hours exposure
Procedure: as §2, §3, §4, §5, §6, §7, §8

LoVo = assay: Inhibition of cells growth by colorimetric assay (SRB), LoVo; conditions: SRB, 48 hours exposure
Procedure: as §2, §3, §4, §5, §6, §7, §8

LoVo-Dox = assay: Inhibition of cells growth by colorimetric assay (SRB), LoVo-Dox; conditions: SRB, 48 hours exposure
Procedure: as §2, §3, §4, §5, §6, §7, §8

DU-145 = assay: Inhibition of cells growth by colorimetric assay (SRB), DU-145; conditions: SRB, 48 hours exposure
Procedure: as §2, §3, §4, §5, §6, §7, §8

SK-BR-3 = assay: Inhibition of cells growth by colorimetric assay (SRB), SK-BR-3; conditions: SRB, 48 hours exposure
Procedure: as §2, §3, §4, §5, §6, §7, §8

IGROV-1 = assay: Inhibition of cells growth by colorimetric assay (SRB), IGROV-1; conditions: SRB, 48 hours exposure
Procedure: as §2, §3, §4, §5, §6, §7, §8

IGROV-ET = assay: Inhibition of cells growth by colorimetric assay (SRB), IGROV-ET; conditions: SRB, 48 hours exposure
Procedure: as §2, §3, §4, §5, §6, §7, §8

SK-OV-3 = assay: Inhibition of cells growth by colorimetric assay (SRB), SK-OV-3; conditions: SRB, 48 hours exposure
Procedure: as §2, §3, §4, §5, §6, §7, §8

PANC-1 = assay: Inhibition of cells growth by colorimetric assay (SRB), PANC-1; conditions: SRB, 48 hours exposure
Procedure: as §2, §3, §4, §5, §6, §7, §8

With COc1cc2c(cc1OC(=O)OC(C)(C)C)CCN[C@]21CS[C@@H]2c3c(OC(C)=O)c(C)c4c(c3[C@H](COC1=O)N1C2[C@H]2c3c(cc(C)c(OC)c3OC(C)C)C[C@@H]([C@@H]1C#N)N2C)OCO4 (stereo partly drawn) [Compound 46] the “TGI A-549” value (A-549; A-549, SRB, 48 hours exposure) was 4.06E-07, the GI50 (A-549) was 179 nM and the LC50 (concentration for 50% cell killing) (A-549; SRB, 48 hours exposure) was 927 nM. For the same compound, the “TGI HT-29” value (HT-29; HT-29, SRB, 48 hours exposure) was 1.95E-06, the GI50 (HT-29) was 398 nM and the LC50 (concentration for 50% cell killing) (HT-29; SRB, 48 hours exposure) was 11 µM. For the same compound, the “TGI HMEC-1” value (HMEC1; HMEC-1, SRB, 48 hours exposure) was 5.18E-07, the GI50 (HMEC1; Homo sapiens, HMEC-1, 48 h, read-out: GI50 HMEC-1) was 152 nM and the LC50 (HMEC1; Homo sapiens, HMEC-1, 48 h, read-out: LC50 HMEC-1, HMEC-1, SRB, 48 hours exposure) was 11 µM.

With COc1cc2c(cc1O)CCN[C@]21CS[C@@H]2c3c(OC(C)=O)c(C)c4c(c3[C@H](COC1=O)N1C2[C@H]2c3c(cc(C)c(OC)c3OC(C)C)C[C@@H]([C@@H]1C#N)N2C)OCO4 (stereo partly drawn) [Compound 48] the GI50 (K-562; Homo sapiens, K562, 48 h, K-562, read-out: GI50 K-562) was 223 nM, the LC50 (50% cell killing) (K-562; Homo sapiens, K562, 48 h, read-out: LC50 K-562, K-562) was 1230 nM and the “TGI K-562” value (K-562; K-562) was 5.47E-07. The “TGI A-549” value (A-549; A-549, SRB, 48 hours exposure) was 7.50E-07, the GI50 (A-549; A-549, SRB, 48 hours exposure) was 272 nM and the LC50 (concentration for 50% cell killing) (A-549; SRB, 48 hours exposure) was 3890 nM. For the same compound, the GI50 (SK-MEL-28; Homo sapiens, SK-MEL-28, 48 h, MEL-28, read-out: GI50 MEL-28) was 1100 nM, the CC50 (SK-MEL-28; Homo sapiens, SK-MEL-28, 48 h, read-out: LC50 MEL-28, MEL-28) was 7.06 µM and the “TGI MEL-28” value (SK-MEL-28; MEL-28) was 2.87E-06. The “TGI HT-29” value (HT-29; HT-29, SRB, 48 hours exposure) was 1.23E-05, the GI50 (HT-29; HT-29, SRB, 48 hours exposure) was 1970 nM and the LC50 (concentration for 50% cell killing) (HT-29; SRB, 48 hours exposure) was 12.3 µM. The GI50 (LoVo; Homo sapiens, LoVo, 48 h, LOVO, read-out: GI50 LOVO) was 713 nM, the LC50 (concentration for 50% cell killing) (LoVo; Homo sapiens, LoVo, 48 h, read-out: LC50 LOVO, LOVO) was 12.3 µM and the “TGI LOVO” value (LoVo; LOVO) was 2.95E-06. The GI50 (LoVo-Dox; Homo sapiens, 48 h, LOVO-DOX, read-out: GI50 LOVO-DOX) was 790 nM, the CC50 (LoVo-Dox; Homo sapiens, 48 h, read-out: LC50 LOVO-DOX, LOVO-DOX) was 12.3 µM and the “TGI LOVO-DOX” value (LoVo-Dox; LOVO-DOX) was 4.18E-06. The “TGI DU-145” value (DU-145; DU-145) was 3.20E-06, the GI50 (DU-145; Homo sapiens, DU-145, 48 h, DU-145, read-out: GI50 DU-145) was 614 nM and the CC50 (DU-145; Homo sapiens, DU-145, 48 h, read-out: LC50 DU-145, DU-145) was 12.3 µM. For the same compound, the GI50 (SK-BR-3; Homo sapiens, SK-BR-3, 48 h, SK-BR3, read-out: GI50 SK-BR3) was 443 nM, the CC50 (SK-BR-3; Homo sapiens, SK-BR-3, 48 h, read-out: LC50 SK-BR3, SK-BR3) was 6.97 µM and the “TGI SK-BR3” value (SK-BR-3; SK-BR3) was 1.54E-06. For the same compound, the GI50 (IGROV-1; Homo sapiens, IGROV-1, 48 h, IGROV, read-out: GI50 IGROV) was 439 nM, the CC50 (IGROV-1; Homo sapiens, IGROV-1, 48 h, read-out: LC50 IGROV, IGROV) was 7.98 µM and the “TGI IGROV” value (IGROV-1; IGROV) was 1.78E-06. For the same compound, the GI50 (IGROV-ET; Homo sapiens, 48 h, IGROV-ET, read-out: GI50 IGROV-ET) was 678 nM, the CC50 (IGROV-ET; Homo sapiens, 48 h, read-out: LC50 IGROV-ET, IGROV-ET) was 12.3 µM and the “TGI IGROV-ET” value (IGROV-ET; IGROV-ET) was 2.93E-06. For the same compound, the GI50 (SK-OV-3; Homo sapiens, SK-OV-3, 48 h, SK-OV3, read-out: GI50 SK-OV3) was 614 nM, the LC50 (SK-OV-3; Homo sapiens, SK-OV-3, 48 h, read-out: LC50 SK-OV3, SK-OV3) was 12.3 µM and the “TGI SK-OV3” value (SK-OV-3; SK-OV3) was 3.40E-06. The GI50 (PANC-1; Homo sapiens, PANC-1, 48 h, PANC-1, read-out: GI50 PANC-1) was 910 nM, the LC50 (concentration for 50% net cell kill) (PANC-1; Homo sapiens, PANC-1, 48 h, read-out: LC50 PANC-1, PANC-1) was 12.3 µM and the “TGI PANC-1” value (PANC-1; PANC-1) was 5.10E-06.
